Where two headings read alike, the source gives them in different places.
Columns and labels:
[1] = system: K. pneumoniae KP41; experiment: Broth microtiter dilution MIC, KP41; type: cell-based; conditions: Klebsiella pneumoniae, TEM-1, SHV-1, SHV-5, SHV-11, CTX-M-15 (A), OXA-232 (D), read-out: MIC (mg/liter) for β-lactam
Experimental: (§1) The in vitro activity of cyclic boronate 2 was assessed using nine clinical isolates carrying multiple β-lactamases (Table 3). The isolates selected included Enterobacteriaceae (E. coli ST 131, Klebsiella pneumoniae ST 258, and Providencia stuartii) producing class A ESBLs (CTX-M-15, CTX-M-27, SHV-5, and VEB-1), serine carbapenemase (KPC-2) and metallo-carbapenemases (VIM-1 and VIM-2), plasmid-mediated AmpC (CMY-2), and/or carbapenem-hydrolyzing OXA-48-like oxacillinases (OXA-181 and OXA-232) in various combinations. The activity against carbapenemase-producing strains of Pseudomonas aeruginosa (VIM-2) and Acinetobacter baumannii (OXA-23) was also investigated. All isolates have previously undergone extensive phenotypic and genotypic characterization ([60]).
(§2) MICs were determined using commercial Sensititre GN4F panels (Thermo Scientific, UK; lot B55051) and Mueller-Hinton II cation-adjusted broth (Oxoid, UK), with and without the addition of cyclic boronate 2 at a fixed concentration of 10 μg/ml. Plates were incubated at 37°C for 18 h and MICs read by eye following the addition of alamarBlue reagent (Trek Diagnostics).

[2] = system: E. coli EC107, ST 131; experiment: Broth microtiter dilution MIC, EC107; type: cell-based; conditions: Escherichia coli, CTX-M-15 (A), OXA-1 (D), read-out: MIC (mg/liter) for β-lactam
Experimental: as §1, §2

[3] = system: E. coli EC86; experiment: Broth microtiter dilution MIC, EC86; type: cell-based; conditions: CTX-M-15 (A), CMY-4 (C), OXA-181 (D); for MIC: Escherichia coli
Experimental: as §1, §2

[4] = system: P. stuartii PS71; experiment: Broth microtiter dilution MIC, PS71; type: cell-based; conditions: Providencia stuartii, TEM-1 (A), SHV-5 (A), VEB-1 (A), VIM-1 (B), read-out: MIC (mg/liter) for β-lactam
Experimental: as §1, §2

[5] = system: E. coli EC113, ST 131; experiment: Broth microtiter dilution MIC, EC113; type: cell-based; conditions: Escherichia coli, CTX-M-27 (A), read-out: MIC (mg/liter) for β-lactam
Experimental: as §1, §2

[6] = system: A. baumannii AB14; experiment: Broth microtiter dilution MIC, AB14; type: cell-based; conditions: Acinetobacter baumannii, OXA-23 (D), OXA-51 (D), read-out: MIC (mg/liter) for β-lactam
Experimental: as §1, §2

[7] = system: K. pneumoniae KP15; experiment: Broth microtiter dilution MIC, KP15; type: cell-based; conditions: Klebsiella pneumoniae, TEM-1 (A), SHV-11 (A), KPC-2 (A), read-out: MIC (mg/liter) for β-lactam
Experimental: as §1, §2

[8] = system: K. pneumoniae KP58; experiment: Broth microtiter dilution MIC, KP58; type: cell-based; conditions: Klebsiella pneumoniae, SHV-11 (A), VIM-4 (B), read-out: MIC (mg/liter) for β-lactam
Experimental: as §1, §2

[9] = system: P. aeruginosa PA12, ST 111; experiment: Broth microtiter dilution MIC, PA12; type: cell-based; conditions: Pseudomonas aeruginosa, VIM-2 (B), read-out: MIC (mg/liter) for β-lactam
Experimental: as §1, §2

[10] = system: E. coli EC114, ST 131; experiment: Broth microtiter dilution MIC, EC114; type: cell-based; conditions: Escherichia coli, TEM-1 (A), CTX-M-15 (A), OXA-1 (D), read-out: MIC (mg/liter) for β-lactam
Experimental: as §1, §2

[11] = biological target: T1, CTX-M-15 (Escherichia coli, UniProt Q9EXV5); experiment: FC5 fluorogenic β-lactamase inhibition assay, CTX-M-15; type: biochemical; conditions: FC5 substrate, read-out: IC50, nM (mean ± SD) for CTX-M-15
T1 construct: hexahistidine (pOPINF, 3C-cleavable) (N, cleaved yes); made in house; host or cells: E. coli BL21(DE3)
Source text: To investigate the extent to which cyclic boronates inhibit class C β-lactamases as well as the important class A ESBL and class D carbapenemase targets, we used a fluorogenic assay ([22]) to screen the cyclic boronates, which we have found to inhibit other β-lactamases ([21]), against them. The β-lactamases used for screening included TEM-1 and CTX-M-15 (class A), the metallo-β-lactamase (MBL) from Bacillus cereus (BcII), Verona integron-encoded metallo-β-lactamase 1 (VIM-1) (class B), AmpC from P. aeruginosa (class C), and OXA-23 and OXA-48 (class D), collectively representing all classes of β-lactamase.
Inhibition assays were carried out using FC5 as a fluorogenic reporter substrate ([22]). Enzyme concentrations and buffers were the same as those employed in steady-state kinetic studies (see Table S2 in the supplemental material). […] The concentration of FC5 employed was 10 μM for TEM-1 and 5 μM for all other enzymes. […] Data at 0 min of incubation were obtained by addition of enzyme to a premixed solution of inhibitor and substrate. Residual enzyme activity was determined for a range of inhibitor concentrations. Nonlinear regression fitting of IC50 curves was carried out using a three-parameter dose-response curve in GraphPad Prism. Errors in IC50 are expressed as [σ(log IC50)/log IC50)] × IC50.
45 Steady-state kinetics studies used a Pherastar FS microplate reader with UV-STAR® 96-well,
47 black, µclear® plates (Greiner Bio-One) for FC5 (1). Buffers employed were 100 mM
48 phosphate buffer pH 7.5, 0.01% (v/v) Triton X-100 for TEM-1, CTX-M-15 and AmpC, 100 mM
49 phosphate buffer pH 7.5, 50 mM sodium bicarbonate, 0.01% Triton X-100 for OXA-23 and
51 1 µM ZnSO4, 0.01% Triton X-100 for MBL assays. Reaction progress was monitored at 298 K
53 intensity (λex = 380 nm, λem = 480 nm) for FC5 (1). Suitable enzyme concentrations for
54 kinetic analysis were determined by monitoring changes in absorbance/fluorescence for
55 enzyme concentrations between 20 nM and 20 pM.
Kinetic constants were determined using the initial rate of hydrolysis with the
57 reaction initiated through the addition of enzyme to pre-prepared substrate concentrations.
58 Substrate concentrations ranged between 400 µM and 0.4 µM. The Michaelis-Menten
59 equation was fitted to data by non-linear regression using GraphPad Prism software to
60 calculate the Michaelis-Menten constant and the limiting rate (2).

[12] = with cyclic boronate 2 (10 mg/liter) supplementation
[13] = without cyclic boronate 2 supplementation
[14] = E. coli EC86, with cyclic boronate 2 (10 mg/liter) supplementation, read-out: MIC (mg/liter) for β-lactam
[15] = EC86, read-out: MIC (mg/liter) for β-lactam, E. coli EC86, without cyclic boronate 2 supplementation

T1 sequence (Q9EXV5 entry or part of it): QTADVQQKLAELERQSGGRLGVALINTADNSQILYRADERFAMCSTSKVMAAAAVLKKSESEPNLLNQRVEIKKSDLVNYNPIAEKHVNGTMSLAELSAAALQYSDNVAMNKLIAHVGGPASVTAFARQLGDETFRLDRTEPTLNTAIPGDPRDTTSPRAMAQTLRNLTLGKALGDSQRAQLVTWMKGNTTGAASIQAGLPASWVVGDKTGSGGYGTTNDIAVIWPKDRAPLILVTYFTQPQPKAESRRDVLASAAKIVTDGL

SMILES | MIC [1, 12] | MIC [1, 13] | MIC [2, 12] | MIC [2, 13] | MIC [3, 14] | MIC [4, 12] | MIC [4, 13] | MIC [5, 12] | MIC [5, 13] | MIC [6, 12] | MIC [6, 13] | MIC [7, 12] | MIC [7, 13] | MIC [8, 12] | MIC [8, 13] | MIC [9, 12] | MIC [9, 13] | MIC [10, 12] | MIC [10, 13] | also measured
CC1(C)S[C@@H]2[C@H](NC(=O)[C@H](N)c3ccccc3)C(=O)N2[C@H]1C(=O)O [AMP, ampicillin] | > 16 mg/L | > 16 mg/L | > 16 mg/L | > 16 mg/L | > 16 mg/L | > 16 mg/L | > 16 mg/L | ≤ 8 mg/L | > 16 mg/L | > 16 mg/L | > 16 mg/L | > 16 mg/L | > 16 mg/L | > 16 mg/L | > 16 mg/L | > 16 mg/L | > 16 mg/L | > 16 mg/L | > 16 mg/L | MIC (mg/liter) for β-lactam ([3]; E. coli EC86, without cyclic boronate 2 supplementation): >16 mg/L
NC(=O)[C@@H]1CC[C@@H]2CN1C(=O)N2OS(=O)(=O)O [Avibactam, avibactam] | – | – | – | – | – | – | – | – | – | – | – | – | – | – | – | – | – | – | – | IC50 ([11]; preincubation 0 min): 9.9 ± 0.2 nM; IC50 ([11]; preincubation 10 min): 1.1 ± 0.1 nM; IC50 ([11]; preincubation 30 min): 0.4 ± 0.06 nM; IC50 ([11]; preincubation 60 min): 0.39 ± 0.01 nM; IC50 ([11]; preincubation 360 min): 6.4 ± 0.1 nM
CC(C)(O/N=C(\C(=O)N[C@@H]1C(=O)N2C(C(=O)[O-])=C(C[n+]3ccccc3)CS[C@H]12)c1csc(N)n1)C(=O)O [CAZ, ceftazidime] | > 16 mg/L | > 16 mg/L | ≤ 1 mg/L | > 16 mg/L | 8 mg/L | > 16 mg/L | > 16 mg/L | ≤ 1 mg/L | 8 mg/L | > 16 mg/L | > 16 mg/L | 4 mg/L | > 16 mg/L | 2 mg/L | > 16 mg/L | > 16 mg/L | > 16 mg/L | ≤ 1 mg/L | > 16 mg/L | MIC [3, 15]: > 16 mg/L
CO/N=C(\C(=O)N[C@@H]1C(=O)N2C(C(=O)O)=C(CSc3nc(=O)c(=O)[nH]n3C)CS[C@H]12)c1csc(N)n1 [CRO, ceftriaxone] | – | – | < 0.5 mg/L | > 16 mg/L | 8 mg/L | 16 mg/L | > 32 mg/L | < 0.5 mg/L | > 32 mg/L | > 32 mg/L | > 32 mg/L | – | – | – | – | > 32 mg/L | > 32 mg/L | < 0.5 mg/L | > 32 mg/L | MIC [3, 15]: > 16 mg/L
C[C@@H](O)[C@H]1C(=O)N2C(C(=O)O)=C(S[C@@H]3CN[C@H](C(=O)Nc4cccc(C(=O)O)c4)C3)[C@H](C)[C@H]12 [ERT, ertapenem] | – | – | – | – | 4 mg/L | – | – | – | – | – | – | – | – | – | – | – | – | – | – | –
Cc1nnc(SCC2=C(C(=O)O)N3C(=O)[C@@H](NC(=O)Cn4cnnn4)[C@H]3SC2)s1 [FAZ, cefazolin] | > 16 mg/L | > 16 mg/L | 8 mg/L | – | – | 4 mg/L | > 16 mg/L | 4 mg/L | – | > 16 mg/L | > 16 mg/L | > 16 mg/L | > 16 mg/L | > 16 mg/L | > 16 mg/L | > 16 mg/L | > 16 mg/L | 8 mg/L | – | –
CO/N=C(\C(=O)N[C@@H]1C(=O)N2C(C(=O)[O-])=C(C[N+]3(C)CCCC3)CS[C@H]12)c1csc(N)n1 [FEP, cefepime] | 32 mg/L | > 32 mg/L | 8 mg/L | – | ≤ 4 mg/L | 8 mg/L | > 32 mg/L | ≤ 4 mg/L | – | 32 mg/L | > 32 mg/L | ≤ 4 mg/L | > 32 mg/L | > 32 mg/L | > 32 mg/L | > 32 mg/L | > 32 mg/L | 8 mg/L | – | –
